Results reported in article PMC12096834, “Antimicrobial peptide plectasin recombinantly produced in Escherichia coli disintegrates cell walls of gram-positive bacteria, as proven by transmission electron and atomic force microscopy” (Journal of Bacteriology, 2025).
In brackets after ≈: the same amount, converted by molar mass.

Columns and labels:
Assay in all cases: Antimicrobial activity assay (broth microdilution MIC)
Format in all cases: cell-based
[1] = system: Enterococcus faecalis DSM 2570 (ATCC 29212); settings: MH broth, approx 5 × 10^4 CFU/well, 35°C, 18 hours, absorbance 625 nm, three independent assays, plectasin 0.5–512 µg/mL, CASPON-plectasin 16–16,384 µg/mL
From the text: (§1) The test panel included four gram-positive and four gram-negative bacterial strains, which were selected based on EUCAST recommendations and are commonly used in quality control for pathogen testing. Specifically, the test panel comprised the following four gram-positive strains: Staphylococcus aureus DSM 2569 (ATCC 29213), Streptococcus pneumoniae DSM 24048 (ATCC 49619), Listeria monocytogenes DSM 20600 (ATCC 15313), and Enterococcus faecalis DSM 2570 (ATCC 29212). The gram-negative strains included the following: Pseudomonas aeruginosa DSM 1117 (ATCC 27853), Escherichia coli DSM 1103 (ATCC 25922), Escherichia coli BL21(DE3) DSM 102052 (ATCC BAA-1025-B2), and Escherichia coli HMS174 DSM 5932 (ATCC 47011). These strains were obtained from the German Collection of Microorganisms and Cell Cultures GmbH (DSMZ, Leibnitz Institute, Braunschweig, Germany). The strains were maintained in cryo-stocks containing 20% glycerol at a temperature of −80°C. When needed, all gram-negative strains were streaked on MH-agar (Oxoid, Hampshire, UK) and all gram-positive strains on TSYE-agar, with the exception of the Listeria monocytogenes strain, for which BHI-agar was used. All strains were incubated overnight at 35°C.
(§2) The plates were made fresh on the day of the assay by first adding 50 µL of sterile water (for the gram-positive strains) or PBS buffer pH 7.4 (for the gram-negative strains) into the wells of the first to 11th column of a polystyrene 96-well plate (Greiner, 655161, Kremsmünster, Austria). An ampicillin stock solution (6,400 µg/mL) was prepared and diluted in sterile water to obtain a final ampicillin solution of 64 µg/mL. Purified plectasin, 100 µL of ampicillin solution, CASPON-plectasin, and sterile water for the negative control were each dispensed into two wells of the 12th microtiter plate column and diluted twofold from the 11th to the second column by transferring 50 µL per well of the previous column into the next one (in the end, 50 µL of the 2nd was discarded) to obtain the ranges of 0.064–64 µg/mL for ampicillin, 32–32,768 µg/mL for CASPON-plectasin, and 0.5–512 µg/mL (Streptococcus pneumoniae and Staphylococcus aureus), 1–1,024 µg/mL (Enterococcus faecalis and Listeria monocytogenes), or 4–4,096 µg/mL (gram-negative strains) for plectasin.
(§3) Bacterial inocula were prepared by suspending colonies from incubated plates described above with 3 mL 0.85% NaCl solution to obtain a turbidity corresponding to McFarland standard 0.5. The inoculated saline suspensions (1–2 × 10^8 CFU/mL) were diluted 1:100 in double concentrated MH- (all gram-negative strains, Staphylococcus aureus, and […]) or MHF- (Streptococcus pneumoniae, Listeria monocytogenes; MH-broth with 5% lysed horse blood and 20 mg/L ß-NAD) broth to obtain approximately […]. Fifty microliters of the diluted inoculum was added to the wells of the prepared microdilution plate, resulting in the final plectasin (0.25–256 µg/mL, 0.5–512 µg/mL, and 2–2,048 µg/mL), CASPON-plectasin (16–16,384 µg/mL), and ampicillin (0.032–32 µg/mL) concentrations and approximately […]. The wells of the negative control were inoculated with sterile double-concentrated MH- or MH-F broth. A schematic illustration of the plate preparation can be found in the supplementary material (Fig. S1). Plates were incubated in ambient air at 35°C for 18 hours. After incubation, the plates were shaken for 1 minute (1,000 rpm) on a platform shaker (Titramax 101, Heidolph, Schwabach, Germany) until obtaining a homogeneous suspension. The absorbances (625 nm) of each well were measured on a Tecan Spark device (Männedorf, Switzerland) and subtracted by the average absorbance of the negative control. […] The variability of the MIC results was evaluated by testing all strains against each agent in three independent assays. […]

[2] = system: Escherichia coli BL21(DE3) DSM 102052 (ATCC BAA-1025-B2)
From the text: as §1, §2, §3

[3] = system: Escherichia coli DSM 1103 (ATCC 25922); settings: MH broth, 35°C, 18 hours, absorbance 625 nm, three independent tests, plectasin 2–2,048 µg/mL, CASPON-plectasin 16–16,384 µg/mL
From the text: as §1, §2, §3

[4] = system: Escherichia coli HMS174 DSM 5932 (ATCC 47011); settings: MH broth, 35°C, 18 hours, absorbance 625 nm, three independent tests, plectasin 2–2,048 µg/mL, CASPON-plectasin 16–16,384 µg/mL
From the text: as §1, §2, §3

[5] = system: Listeria monocytogenes DSM 20600 (ATCC 15313); settings: MHF broth, approx 5 × 10^4 CFU/well, 35°C, 18 hours, absorbance 625 nm, three independent assays, plectasin 0.5–512 µg/mL, CASPON-plectasin 16–16,384 µg/mL
From the text: as §1, §2, §3

[6] = system: Pseudomonas aeruginosa DSM 1117 (ATCC 27853); settings: MH broth, 35°C, 18 hours, absorbance 625 nm, three independent tests, plectasin 2–2,048 µg/mL, CASPON-plectasin 16–16,384 µg/mL
From the text: as §1, §2, §3

[7] = system: Staphylococcus aureus DSM 2569 (ATCC 29213); settings: 18 hours
From the text: as §1, §2, §3

[8] = system: Streptococcus pneumoniae DSM 24048 (ATCC 49619); settings: 18 hours
From the text: as §1, §2, §3

[9] = microdilution, extinction at 625 nm, Fig. 3

Compound: CC[C@H](C)[C@@H]1NC(=O)[C@H](CO)NC(=O)[C@H](CCCCN)NC(=O)[C@@H]2CSSC[C@@H](C(=O)N[C@@H](Cc3ccc(O)cc3)C(=O)O)NC(=O)[C@H](CCCCN)NC(=O)[C@@H]3CSSC[C@H](NC(=O)[C@H](CCC(N)=O)NC(=O)[C@H](CCSC)NC(=O)[C@H](CC(=O)O)NC(=O)[C@H](CC(=O)O)NC(=O)[C@H](CCC(=O)O)NC(=O)[C@H](CC(=O)O)NC(=O)[C@H](Cc4c[nH]c5ccccc45)NC(=O)[C@@H]4CCCN4C(=O)CNC(=O)[C@H](CC(N)=O)NC(=O)[C@@H](NC(=O)CNC(=O)[C@H](Cc4ccccc4)NC(=O)CN)CSSC[C@H](NC(=O)[C@H](Cc4ccc(O)cc4)NC(=O)CNC(=O)CNC(=O)[C@H](CCCCN)NC(=O)[C@H](Cc4ccc(O)cc4)NC(=O)CNC(=O)[C@H](CCCCN)NC1=O)C(=O)N[C@@H](C)C(=O)N[C@@H](CCCCN)C(=O)NCC(=O)NCC(=O)N[C@@H](Cc1ccccc1)C(=O)N[C@@H](C(C)C)C(=O)N3)C(=O)N[C@@H](Cc1c[nH]cn1)C(=O)N[C@@H](CC(N)=O)C(=O)N[C@@H](Cc1c[nH]cn1)C(=O)N2 [Plectasin, plectasin]
- MIC [1]: 128 µg/mL (≈ 29.1 µM)
- growth inhibition (no MIC could be determined) ([2]; broth microdilution, MH broth, 35°C, 18 hours, absorbance 625 nm, three independent tests, plectasin 2–2,048 µg/mL, CASPON-plectasin 16–16,384 µg/mL): no growth decline
- extinction value at 625 nm (growth) at the highest plectasin concentration ([2]; increased number and altered morphology of cells (Fig. S11)): four times higher
- growth inhibition (no MIC could be determined) [3]: no growth decline
- growth inhibition (no MIC could be determined) [4]: no growth decline
- MIC [5]: 32 µg/mL (≈ 7.27 µM)
- growth inhibition (no MIC could be determined) [6]: no growth decline
- MIC ([7]; broth microdilution, MH broth, approx 5 × 10^4 CFU/well, 35°C, absorbance 625 nm, three independent assays, plectasin 0.25–256 µg/mL, CASPON-plectasin 16–16,384 µg/mL): 32 µg/mL (≈ 7.27 µM)
- plectasin concentration at which a distinct gradient of extinction reduction was observed [7, 9]: 8 µg/mL
- MIC ([8]; broth microdilution, MHF broth (5% lysed horse blood, 20 mg/L ß-NAD), approx 5 × 10^4 CFU/well, 35°C, absorbance 625 nm, three independent assays, plectasin 0.25–256 µg/mL, CASPON-plectasin 16–16,384 µg/mL): 4 µg/mL (≈ 0.909 µM)
- plectasin concentration at which a distinct gradient of extinction reduction was observed [8, 9]: 0.5 µg/mL
